Experiments:
gastric cancer organoids = experiment: Drug cytotoxicity, CellTiter-Glo cell viability and bright field images, organoids; type: cell-based, human; details: for cell death: targeted drugs at concentrations found in peripheral blood (crizotinib 1 μM, osimertinib 0.8 μM, afatinib 0.150 μM); for effect on viability: targeted drugs, 72 hours (dasatinib 0.180 μM, gefitinib 3 μM, imatinib 4 μM, capmatinib 8 μM)
Protocol: (§1) Organoids and stroma cells isolation and culture: Human gastric cancer along with surrounding normal tissue were obtained from a consenting patient undergoing surgery at Ichilov Hospital, with approval from the Institutional Review Board. The samples were transported in cold hypothermosol medium and processed within 24 hours post-surgery. Upon acquisition, the tumor tissue was divided into three equal parts for various analyses. One third was snap-frozen for subsequent DNA isolation, another third was fixed in 4% paraformaldehyde for histological examination, and the remaining portion was prepared for cell culture. The tissue underwent digestion using Collagenase I (1 mg/ml), Liberase, and DNAse (10 ug/ml), followed by separation into organoids and stroma cell cultures. Organoids were cultured as previously described hereinbelow, with medium replacement twice weekly and passaging via mechanical and enzymatic dissociation using TrypLE enzyme. Stroma cells were cultured in mesenchymal stem cell medium (MSCM) on pre-coated Matrigel (20%) and fibronectin (2 μg/cm2) 4-well dish plates. Upon reaching 80% confluency the cells were subculturing using accutase to 6 well plate and then to 25 cm flask. From passage 3 onwards, cells were sub-cultured in 25 cm flask and then in 75 cm flasks using MSCM, endothelial cell medium (ECM), or fibroblast medium (FM-2) for subsequent passages. Bright field images were obtained using Operetta High Content Screening System or Leica microscope.
(§2) Cell viability assay: To assess co-culture growth rates and the cytotoxic effects of various drugs, a luminescent cell viability assay was conducted using the CellTiter-Glo kit from Promega following the manufacturer's guidelines. For the drug cytotoxicity assay, co-cultures or organoids were seeded in 384-well plates and allowed to organize for 48 hours. […] The chosen drug concentrations were based on their higher plasma concentration values. Following treatment, each well containing co-cultures or organoids was lysed using CellTiter-Glo reagents, thoroughly mixed, and incubated for 30 minutes, after which luminescence was measured.

[1] = tested on: ECM:FM2:ORG co-cultures (TECs:TASCs:Org); experiment: Drug cytotoxicity, CellTiter-Glo cell viability and bright field images, organoid-stroma cell co-cultures; type: cell-based, human; details: for effect on viability: co-culture, targeted drugs, 72 hours (afatinib 0.150 μM, osimertinib 0.8 μM, dasatinib 0.180 μM, gefitinib 3 μM, imatinib 4 μM, capmatinib 8 μM)
Protocol: Organoid-stroma cells co-culture: Initially, organoids were mechanically dissociated into smaller fragments through pipetting, followed by enzymatic digestion into single cells using dispase II at 37° C. for 20 minutes. Concurrently, stroma cells cultured in FM-2, ECM, and MSCM, as well as Huvec cells cultured in ECM, were harvested at 80% confluency in the flask and dissociated using accutase. In certain experiments, after cells dissociation, each cell population was stained with a vital dye before their co-culture. Cells cultured in ECM and Huvec cell lines were stained blue using the CellTrace Violet Dye Proliferation Kit. […] Imaging was performed at 10× magnification using an Olympus Confocal Microscope. Subsequently, dissociated cells were mixed in 35 ul of co-culture medium, at ratios of 1:1:1, 1:4:1, 4:1:1 and 1:1:4 of Huvec or cells cultured in ECM, cells cultured in FM2 and organoids respectively. Co-cultures composed of ECM:organoids (ORG), FM2:ORG, and Huvec:ORG were also created at 1:1, 1:4, and 4:1 ratios, respectively. Each mix, containing 4000 cells, was then co-cultured in 384 wells low repellent plates, with DMEM/F12 medium supplemented with 10 mM HEPES, abam, 2 mM glutamax, non-essential amino acids, sodium pyruvate, 500 ng ml-1 R-spondin, 100 ng ml-1 noggin, 100 ng ml-1 Wnt3A, 10 nM gastrin, Prostaglandin E2, 100 ng ml-1 IGF1, 10 ng·ml-1 FGF2, 10 ng·ml-1 FGF10, 50 ng·ml-1 EGF, B27, 0.5 μM A 83-01, 4 mM nicotinamide, 10 μM Y-27632, 1 μg ml-1 hydrocortisone, 50 μg ml-1 ascorbic acid, 5 ng ml-1 VEGF and 100 ng ml-1 IL-6, 4 μg ml-1 heparin, and 5% fetal calf serum in 10 ng·ml-1 and fibronectin and 5% Matrigel as scaffold and incubated in 5% CO2 at 37° C. for different intervals of time.
as §2

stroma cell monocultures = experiment: Drug cytotoxicity, CellTiter-Glo cell viability, stroma cell monocultures; type: cell-based, human; details: stroma cells monocultures, targeted drugs, 72 hours (dasatinib 0.180 μM, imatinib 4 μM, capmatinib 8 μM)
Protocol: as §1, with “Stroma cells were cultured in mesenchymal stem cell medium (MSCM) on pre-coated Matrigel (20%) and fibronectin (2 μg/cm2) 4-well dish plates. Upon reaching 80% confluency the cells were subculturing using accutase to 6 well plate and then to 25 cm flask. From passage 3 onwards, cells were sub-cultured in 25 cm flask and then in 75 cm flasks using MSCM, endothelial cell medium (ECM), or fibroblast medium (FM-2) for subsequent passages. Bright field images were obtained using Operetta High Content Screening System or Leica microscope.” left out
(§3) Cell viability assay: To assess co-culture growth rates and the cytotoxic effects of various drugs, a luminescent cell viability assay was conducted using the CellTiter-Glo kit from Promega following the manufacturer's guidelines. […] Following treatment, each well containing co-cultures or organoids was lysed using CellTiter-Glo reagents, thoroughly mixed, and incubated for 30 minutes, after which luminescence was measured.

[2] = tested on: human pancreas tumor avatar; experiment: Celltiter-Glo viability of drug treated pancreas tumor avatars; type: cell-based; details: pancreas tumor avatars (Huvec, TASCs, Org), cultured 3 days, treated 72 hours
Protocol: (§4) FIGS. 10A-10B: (10A) Representative immunofluorescence and brightfield images of human pancreas tumor avatar composed of Huvec endothelial cells, Org and TASCs mix at a 1:1:1, 1:4:1 or 4:1:1 ratio, respectively cultivated in a Matrigel (5%) and fibronectin scaffold (10 ng/ml), during 6 days. Org were stained with Cell Vue Claret far red fluorochrome (purple cells). Cell viability was assessed by Calcein (green)/PI (red) staining and images were acquired with Operetta Imager at 5× magnification. (10B) Line graphs showing relative light unit percentage (RLU %) of everolimus or FOLFOX treated pancreas tumor avatars and organoids as compared with their respective vehicle controls, after the same day of drug or vehicle exposure, (RLU %=RLUtreatment*100)/RLUveh). Tumor avatars were cultured for 3 days, treated with the specified drugs for other 72 hours and viability determined by Celltiter-Glo assay.
(§5) Next, the inventors aimed to examine a tumor avatar model, composed of pancreas tumor epithelial cells, TASCs and Huvec cells, cultured in the presence of a Matrigel and fibronectin scaffold. Huvec, TASCs and […] organoid-derived tumor epithelial cells clusters (5-15 cells/cluster) were seeded at different ratios (1:1:1, 1:4:4 or 4:1:4 respectively) and cultured for 6 days. Tumor cells, labelled with CellVue Claret far red fluorochrome localized in the interior of the tumor avatar.

pancreas organoids = experiment: Celltiter-Glo viability of drug treated pancreas organoids; type: cell-based, human; details: 72 hours treatment
Protocol: as §4, §5

[3] = tested on: HUVEC:FM-2:ORG co-cultures; experiment: Drug cytotoxicity, CellTiter-Glo cell viability, co-cultures containing Huvec cells; type: cell-based, human; details: paclitaxel 5 μM, 72 hours
Protocol: Organoid-stroma cells co-culture: Initially, organoids were mechanically dissociated into smaller fragments through pipetting, followed by enzymatic digestion into single cells using dispase II at 37° C. for 20 minutes. Concurrently, stroma cells cultured in FM-2, ECM, and MSCM, as well as Huvec cells cultured in ECM, were harvested at 80% confluency in the flask and dissociated using accutase. In certain experiments, after cells dissociation, each cell population was stained with a vital dye before their co-culture. Cells cultured in ECM and Huvec cell lines were stained blue using the CellTrace Violet Dye Proliferation Kit. […] Imaging was performed at 10× magnification using an Olympus Confocal Microscope. Subsequently, dissociated cells were mixed in 35 ul of co-culture medium, at ratios of 1:1:1, 1:4:1, 4:1:1 and 1:1:4 of Huvec or cells cultured in ECM, cells cultured in FM2 and organoids respectively. […]
as §3

[4] = tested on: patient 1 (gastrointestinal sarcoma) and patient 2 (gastric adenocarcinoma); experiment: Administration to the patients; type: in vivo, human; details: both patients
[5] = tested on: human gastric tumor avatars in the presence of lymphocytes; experiment: Cell-Titer Glo viability of gastric tumor avatars with peripheral blood lymphocytes; type: cell-based; details: avatars of patient 1 and patient 2 with autologous lymphocytes, various concentrations, 72 hours
Source text: FIGS. 12A-12F: (12A) Representative brightfield images of human gastric tumor avatars from a patient with gastrointestinal sarcoma (patient 1) and a second patient (patient 2) with gastric adenocarcinoma, composed of organoids and stroma cells. Cells were dissociated from gastric tissue and cultured in a Matrigel dome in an adherent plate in tumor avatar medium from day 0. After 7 days of culture, organoids remain in the dome and stroma cells and metastatic tumor cells invaded the tissue culture plate outside the dome. […] (12B) Representative brightfield images of defrosted human gastric tumor avatars from defrosted tumor avatars. The tumor avatars were sub-cultured in a Matrigel dome using an adherent plate in the presence of tumor avatar medium from day 3 to day 13. […] (12C-12D). Representative brightfield images of human gastric tumor avatars from a patient with gastrointestinal sarcoma (patient 1) and a second patient (patient 2) with gastric adenocarcinoma, composed of organoids and stroma cells. […] Cell viability was detected after 72 hours of treatment using Cell-Titer Glo assay.
Lymphocytes were isolated from the peripheral blood of patient 1 and patient 2. […] Pembrolizumab was added at various concentrations to the tumor avatars and cell viability was monitored for 72 hours after treatment using the Cell-Titer Glo assay.

Molecule: CN(C)C/C=C/C(=O)Nc1cc2c(Nc3ccc(F)c(Cl)c3)ncnc2cc1O[C@H]1CCOC1 [afatinib]
- cell death (gastric cancer organoids; organoids, 72 hours): approximately 50%

Molecule: CNC(=O)c1ccc(-c2cnc3ncc(Cc4ccc5ncccc5c4)n3n2)cc1F [capmatinib]
- effect on viability [1]: neither the organoids nor the co-culture showed significant response
- effect on viability (stroma cell monocultures): decreased viability
- effect on viability (gastric cancer organoids; organoids): neither the organoids nor the co-culture showed significant response

Molecule: C[C@@H](Oc1cc(-c2cnn(C3CCNCC3)c2)cnc1N)c1c(Cl)ccc(F)c1Cl [crizotinib]
- cell death ([1]; stroma cells-organoid co-cultures, crizotinib 1 μM, 72 hours): more than 50%
- cell death (gastric cancer organoids; organoids, 72 hours): more than 50%

Molecule: CO[C@H]1C[C@@H]2CC[C@@H](C)[C@@](O)(O2)C(=O)C(=O)N2CCCC[C@H]2C(=O)O[C@H]([C@H](C)C[C@@H]2CC[C@@H](OCCO)[C@H](OC)C2)CC(=O)[C@H](C)/C=C(\C)[C@@H](O)[C@@H](OC)C(=O)[C@H](C)C[C@H](C)/C=C/C=C/C=C/1C [everolimus]
- effect of treatment on viability (RLU %) [2]: neither the organoids nor the tumor avatar models were affected
- effect of treatment on viability (RLU %) (pancreas organoids): neither the organoids nor the tumor avatar models were affected

Molecule: COc1cc2ncnc(Nc3ccc(F)c(Cl)c3)c2cc1OCCCN1CCOCC1 [gefitinib]
- effect on viability [1]: neither the organoids nor the co-culture showed significant response
- effect on viability (gastric cancer organoids; organoids): neither the organoids nor the co-culture showed significant response

Molecule: Cc1ccc(NC(=O)c2ccc(CN3CCN(C)CC3)cc2)cc1Nc1nccc(-c2cccnc2)n1 [imatinib]
- effect on viability [1]: neither the organoids nor the co-culture showed significant response
- effect on viability (stroma cell monocultures): decreased viability
- effect on viability (gastric cancer organoids; organoids): neither the organoids nor the co-culture showed significant response

Molecule: C=CC(=O)Nc1cc(Nc2nccc(-c3cn(C)c4ccccc34)n2)c(OC)cc1N(C)CCN(C)C [osimertinib]
- effect on viability [1]: resistant
- cell death (gastric cancer organoids; organoids, 72 hours): approximately 50%

Molecule: CC(=O)O[C@H]1C(=O)[C@@]2(C)[C@H]([C@H](OC(=O)c3ccccc3)[C@]3(O)C[C@H](OC(=O)[C@H](O)[C@@H](NC(=O)c4ccccc4)c4ccccc4)C(C)=C1C3(C)C)[C@]1(OC(C)=O)CO[C@@H]1C[C@@H]2O [paclitaxel]
- cell death ([1]; TECs:TASCs:Org ratio 1:1:4, paclitaxel 5 μM, 72 hours): 22%
- cell death ([1]; TECs:TASCs:Org ratios 1:1:1, 4:1:1 and 1:4:1, paclitaxel 5 μM, 72 hours): approximately 40%
- size and integrity in bright field images ([1]; co-cultures, paclitaxel 5 μM, 72 hours): reduced the size and affected the integrity
- cell death [3]: approximately 10%
- cytotoxicity at 5 µM (gastric cancer organoids; Homo sapiens, 72 h, read-out: decrease in cell viability): 53%
- size and integrity in bright field images (gastric cancer organoids; organoids, paclitaxel 5 μM, 72 hours): reduced the size and affected the integrity

Molecule: Pembrolizumab: Pembrolizumab immunotherapy
- patient response [4]: both respond
- effectiveness (cell viability) [5]: effective
